These results are taken from US20130029967A1, “Fused Imidazo [3,2 - D] Pyrazines as P13 Kinase Inhibitors” (Centro Nacional de Investigaciones Oncologicas (CNIO), priority 2009, published 2013).

As usually defined, the IC50 is the concentration at which inhibition is half-maximal.

The first assay deals with T1, PI3K (p110α/p85α) (Homo sapiens, UniProt P42336).
T1 construct: purchased Carna Biosciences 07CBS-0402A
T1 sequence (P42336 whole entry): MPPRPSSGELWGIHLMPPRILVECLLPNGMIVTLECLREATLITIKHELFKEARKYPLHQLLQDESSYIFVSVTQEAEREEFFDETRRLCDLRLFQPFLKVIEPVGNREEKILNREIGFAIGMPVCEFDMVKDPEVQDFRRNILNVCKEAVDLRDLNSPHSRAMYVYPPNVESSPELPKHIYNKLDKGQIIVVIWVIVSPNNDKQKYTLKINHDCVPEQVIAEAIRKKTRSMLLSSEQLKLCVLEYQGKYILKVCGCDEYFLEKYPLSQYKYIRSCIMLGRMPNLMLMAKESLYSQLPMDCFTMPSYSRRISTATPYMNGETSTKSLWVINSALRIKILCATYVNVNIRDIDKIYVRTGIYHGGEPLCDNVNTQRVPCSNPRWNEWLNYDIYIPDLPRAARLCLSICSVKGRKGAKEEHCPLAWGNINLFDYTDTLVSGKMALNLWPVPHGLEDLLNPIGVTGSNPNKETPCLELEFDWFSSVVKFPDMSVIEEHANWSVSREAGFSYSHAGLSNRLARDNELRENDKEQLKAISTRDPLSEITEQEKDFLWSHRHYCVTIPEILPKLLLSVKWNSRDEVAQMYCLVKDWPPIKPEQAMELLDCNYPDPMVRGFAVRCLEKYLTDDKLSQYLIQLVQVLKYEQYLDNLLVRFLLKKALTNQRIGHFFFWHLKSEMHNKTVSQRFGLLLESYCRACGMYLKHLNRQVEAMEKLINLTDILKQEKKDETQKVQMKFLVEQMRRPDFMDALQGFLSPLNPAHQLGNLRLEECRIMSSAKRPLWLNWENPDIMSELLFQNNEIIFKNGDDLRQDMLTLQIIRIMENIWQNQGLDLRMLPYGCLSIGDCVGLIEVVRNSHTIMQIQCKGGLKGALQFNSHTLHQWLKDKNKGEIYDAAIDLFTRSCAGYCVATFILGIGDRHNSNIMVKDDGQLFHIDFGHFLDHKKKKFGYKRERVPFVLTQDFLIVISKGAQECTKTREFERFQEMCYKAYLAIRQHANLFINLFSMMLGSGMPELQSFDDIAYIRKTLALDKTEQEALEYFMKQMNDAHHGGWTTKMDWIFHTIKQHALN
T1 sequence (P27986 whole entry partner): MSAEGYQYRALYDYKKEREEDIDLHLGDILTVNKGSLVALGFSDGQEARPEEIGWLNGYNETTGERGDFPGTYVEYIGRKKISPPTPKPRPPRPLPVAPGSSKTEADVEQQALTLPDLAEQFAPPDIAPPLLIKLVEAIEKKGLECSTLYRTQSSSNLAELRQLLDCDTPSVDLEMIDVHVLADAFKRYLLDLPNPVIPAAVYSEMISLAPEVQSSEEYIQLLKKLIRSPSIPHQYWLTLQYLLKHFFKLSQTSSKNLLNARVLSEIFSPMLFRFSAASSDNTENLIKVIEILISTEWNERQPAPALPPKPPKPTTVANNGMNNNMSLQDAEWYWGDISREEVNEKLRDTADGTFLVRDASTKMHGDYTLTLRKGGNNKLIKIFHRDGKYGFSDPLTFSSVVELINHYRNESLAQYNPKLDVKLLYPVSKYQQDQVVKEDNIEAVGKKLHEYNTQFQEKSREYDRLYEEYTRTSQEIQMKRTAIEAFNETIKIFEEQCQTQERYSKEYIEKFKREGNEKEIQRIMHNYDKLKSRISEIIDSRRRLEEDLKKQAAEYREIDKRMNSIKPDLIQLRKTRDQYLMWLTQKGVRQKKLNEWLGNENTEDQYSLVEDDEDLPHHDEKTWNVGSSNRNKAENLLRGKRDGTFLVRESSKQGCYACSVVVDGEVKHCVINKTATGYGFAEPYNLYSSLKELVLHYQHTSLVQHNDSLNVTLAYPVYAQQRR
In words: PI3K activity assay (ADP Hunter Plus). The format is biochemical. The conditions noted are these: PI3Kα; class symbols; read-out: PI3K α IC50 (semi-quantitative). The procedure:
The kinase activity was measured by using the commercial ADP Hunter™ Plus assay available from DiscoveRx (#33-016), which is a homogeneous assay to measure the accumulation of ADP, a universal product of kinase activity. […] Reaction was carried out for 1 hour at 25° C. Reagent A and B were sequentially added to the wells and plates were incubated for 30 min at 37° C. […] Values were normalized against the control activity included for each enzyme (i.e., 100% PI3 kinase activity, without compound). These values were plot against the inhibitor concentration and were fit to a sigmoid dose-response curve by using the Graphed software.
With `CCOC(=O)N1CCc2nc3c(N4CCOCC4)nc(-c4cccc5[nH]ncc45)cn3c2C1` [2-03, 3-(1H-Indazol-4-yl)-1-morpholin-4-yl-7,8-dihydro-5H-2,4-a,6,9-tetraaza-fluorene-6-carboxylic acid ethyl ester], the IC50 is greater than 1000 nM.

On to `c1cncc(CN2CCc3nc4c(N5CCOCC5)nc(-c5cccc6[nH]ncc56)cn4c3C2)c1` [2-05], for which the IC50 is greater than 1000 nM.

As for `c1cc(-c2cn3c4c(nc3c(N3CCOCC3)n2)CCN(Cc2nccs2)C4)c2cn[nH]c2c1` [2-06], the half-maximal inhibitory concentration (IC50) was greater than 1000 nM.

Consider `c1cc(-c2cn3c4c(nc3c(N3CCOCC3)n2)CCN(CC2CCOCC2)C4)c2cn[nH]c2c1` [2-09], for which the IC50 is greater than 1000 nM.

Turning to `CS(=O)(=O)c1ccc(CN2CCc3nc4c(N5CCOCC5)nc(-c5cccc6[nH]ncc56)cn4c3C2)cc1` [2-10], the IC50 is greater than 1000 nM.

As for `c1cc(-c2cn3c4c(nc3c(N3CCOCC3)n2)CCN(Cc2ncc[nH]2)C4)c2cn[nH]c2c1` [2-13], the IC50 is greater than 1000 nM.

As to `c1cc(-c2cn3c4c(nc3c(N3CCOCC3)n2)CCN(CC2CNC2)C4)c2cn[nH]c2c1` [2-14], the IC50 is greater than 1000 nM.

`CCOC(=O)N1CCc2nc3c(N4CCOCC4)nc(-c4ccc(N)nc4)cn3c2C1` [2-21]: the IC50 was greater than 1000 nM.

Take `CCOC(=O)N1CCc2nc3c(N4CCOCC4)nc(-c4ccc5[nH]ccc5c4)cn3c2C1` [2-22]: the IC50 is greater than 1000 nM.

Turning to `CCOC(=O)N1CCc2nc3c(N4CCOCC4)nc(-c4cccnc4)cn3c2C1` [2-24], the IC50 is greater than 1000 nM.

As for `CCOC(=O)N1CCc2nc3c(N4CCOCC4)nc(-c4cnc(N)c(C(F)(F)F)c4)cn3c2C1` [2-25], the IC50 is greater than 1000 nM.

Take `CCOC(=O)N1CCc2nc3c(N4CCOCC4)nc(-c4c(F)ccc5[nH]ccc45)cn3c2C1` [2-26]: the IC50 is greater than 1000 nM.

For `CCOC(=O)N1CCc2nc3c(N4CCOCC4)nc(-c4ccc5[nH]ccc5c4)c(Cl)n3c2C1` [2-29], the IC50 was greater than 1000 nM.

Regarding `CCOC(=O)N1CCc2nc3c(N4CCOCC4)nc(-c4cncc(OC)c4)c(Cl)n3c2C1` [2-30], the IC50 is greater than 1000 nM.

For `CCOC(=O)N1CCc2nc3c(N4CCOCC4)nc(-c4cccnc4)c(Cl)n3c2C1` [2-31], the IC50 was greater than 1000 nM.

On to `Nc1ncc(-c2cn3c4c(nc3c(N3CCOCC3)n2)CCN(CC2CCOCC2)C4)cn1` [2-36], for which the IC50 is greater than 1000 nM.

For the molecule `CCOC(=O)C1CCC(N2CCc3nc4c(N5CCOCC5)nc(-c5cnc(N)nc5)cn4c3C2)CC1` (stereo not shown) [2-40], the IC50 was greater than 1000 nM.

Take `CCOC(=O)N1CCc2nc3c(N4CCOCC4)nc(-c4cncnc4)cn3c2C1` [2-41]: the IC50 was greater than 1000 nM.

For the molecule `CC(C)NC(=O)N1CCc2nc3c(N4CCOCC4)nc(-c4cnc(N)nc4)cn3c2C1` [2-44], the IC50 is less than 500 nM.

Consider `c1nc(NCC2CC2)ncc1-c1cn2c3c(nc2c(N2CCOCC2)n1)CCN(CC1CC1)C3` [2-47], for which the IC50 is greater than 1000 nM.

The assay is the same for the next values; noted with them: PI3Kα; quantitative results; read-out: PI3K α IC50.
For the molecule `CCOC(=O)N1CCc2nc3c(N4CCOCC4)nc(-c4cccc(O)c4)cn3c2C1` [2-01, 3-(3-Hydroxy-phenyl)-1-morpholin-4-yl-7,8-dihydro-5H-2,4-a,6,9-tetraaza-fluorene-6-carboxylic acid ethyl ester], the concentration for half-maximal inhibition (IC50) was found to be 207 nM.

With `Oc1cccc(-c2cn3c4c(nc3c(N3CCOCC3)n2)CCNC4)c1` [2-02], the IC50 stood at 185 nM.

For `c1cc(-c2cn3c4c(nc3c(N3CCOCC3)n2)CCN(Cc2ccncc2)C4)c2cn[nH]c2c1` [2-07], the IC50 came to 852 nM.

Turning to `c1ccc(CN2CCc3nc4c(N5CCOCC5)nc(-c5cccc6[nH]ncc56)cn4c3C2)nc1` [2-08], the IC50 worked out at 439 nM.

For `c1coc(CN2CCc3nc4c(N5CCOCC5)nc(-c5cccc6[nH]ncc56)cn4c3C2)c1` [2-11], the concentration for half-maximal inhibition (IC50) is 1780 nM.

`c1cc(-c2cn3c4c(nc3c(N3CCOCC3)n2)CCN(Cc2ccoc2)C4)c2cn[nH]c2c1` [2-12]: the IC50 came to 708 nM.

Consider `CS(=O)(=O)c1cccc(CN2CCc3nc4c(N5CCOCC5)nc(-c5cccc6[nH]ncc56)cn4c3C2)c1` [2-15], for which the IC50 turned out to be 3330 nM.

For `CCOC(=O)N1CCc2nc3c(N4CCOCC4)nc(-c4cnc(OC)nc4)cn3c2C1` [2-19], the IC50 stood at 724 nM.

In the case of `CCOC(=O)N1CCc2nc3c(N4CCOCC4)nc(-c4cnc5[nH]ccc5c4)cn3c2C1` [2-20], the IC50 came out at 1050 nM.

As to `CCOC(=O)N1CCc2nc3c(N4CCOCC4)nc(-c4cncc(OC)c4)cn3c2C1` [2-23], the IC50 turned out to be 2700 nM.

In the case of `CCOC(=O)N1CCc2nc3c(N4CCOCC4)nc(-c4cnc(OC)nc4)c(Cl)n3c2C1` [2-27], the IC50 worked out at 603 nM.

`CCOC(=O)N1CCc2nc3c(N4CCOCC4)nc(-c4cnc5[nH]ccc5c4)c(Cl)n3c2C1` [2-28]: the IC50 turned out to be 1070 nM.

With `CCOC(=O)N1CCc2nc3c(N4CCOCC4)nc(-c4cnc(N)c(C(F)(F)F)c4)c(Cl)n3c2C1` [2-33], the IC50 is 1780 nM.

For the molecule `CC(C)CN1CCc2nc3c(N4CCOCC4)nc(-c4cnc(N)nc4)cn3c2C1` [2-35], the IC50 was determined as 692 nM.

With `Nc1ncc(-c2cn3c4c(nc3c(N3CCOCC3)n2)CCN(CC2CCCCC2)C4)cn1` [2-37], the IC50 worked out at 363 nM.

Regarding `CC(C)C(=O)N1CCc2nc3c(N4CCOCC4)nc(-c4cnc(N)nc4)cn3c2C1` [2-43], the IC50 is 550 nM.

On to `CCN1CCc2nc3c(N4CCOCC4)nc(-c4cnc(N)nc4)cn3c2C1` [2-45], for which the IC50 is 257 nM.

Consider `COC(=O)N1CCc2nc3c(N4CCOCC4)nc(-c4cnc(N)nc4)cn3c2C1` [2-48], for which the IC50 turned out to be 100 nM.

For the molecule `CCCNC(=O)N1CCc2nc3c(N4CCOCC4)nc(-c4cnc(N)nc4)c(Cl)n3c2C1` [2-54], the IC50 is 148 nM.

For the molecule `CCCCS(=O)(=O)N1CCc2nc3c(N4CCOCC4)nc(-c4cnc(N)nc4)cn3c2C1` [2-55], the IC50 is 33 nM.

`Nc1ncc(-c2nc(N3CCOCC3)c3nc4c(n3c2Cl)CN(S(=O)(=O)c2ccccc2)CC4)cn1` [2-58]: the half-maximal inhibitory concentration (IC50) was determined as 101 nM.

For `N#CCCCS(=O)(=O)N1CCc2nc3c(N4CCOCC4)nc(-c4cnc(N)nc4)cn3c2C1` [2-77], the IC50 turned out to be 19 nM.

Consider `Nc1ncc(-c2cn3c4c(nc3c(N3CCOCC3)n2)CCN(CC2CCCC2)C4)cn1` [2-80], for which the IC50 was determined as 340 nM.

As to `Nc1ncc(-c2cn3c4c(nc3c(N3CCOCC3)n2)CCN(C2CCCCC2)C4)cn1` [2-81], the IC50 worked out at 238 nM.

As for `Nc1ncc(-c2cn3c4c(nc3c(N3CCOCC3)n2)CCN(Cc2ccnnc2)C4)cn1` [2-84], the IC50 was 175 nM.

As for `CCCC(=O)N1CCc2nc3c(N4CCOCC4)nc(-c4cnc(N)nc4)cn3c2C1` [2-86], the IC50 is 94 nM.

For `COc1cccc(CN2CCc3nc4c(N5CCOCC5)nc(-c5cnc(N)nc5)cn4c3C2)c1` [2-95], the IC50 is 240 nM.

As for `Nc1ncc(-c2cn3c4c(nc3c(N3CCOCC3)n2)CCN(Cc2ccc(OC(F)(F)F)cc2)C4)cn1` [2-100], the IC50 is 310 nM.

On to `Nc1ncc(-c2cn3c4c(nc3c(N3CCOCC3)n2)CCN(Cc2ccncc2)C4)cn1` [2-107], for which the IC50 stood at 125 nM.

Still in this assay, the particulars now being: quantitative results; read-out: PI3K α IC50.
In the case of `Nc1ncc(-c2cn3c4c(nc3c(N3CCOCC3)n2)CCN(S(=O)(=O)C2CNC2)C4)cn1` [2-110], the IC50 is 7 nM.

As to `Nc1ncc(-c2cn3c4c(nc3c(N3CCOCC3)n2)CCN(Cc2nccs2)C4)cn1` [2-111], the IC50 was 139 nM.

Regarding `Nc1ncc(-c2cn3c4c(nc3c(N3CCOCC3)n2)CCN(C(=O)Nc2cc(Cl)cc(Cl)c2)C4)cn1` [2-112], the IC50 is 90 nM.

`N#Cc1cccc(NC(=O)N2CCc3nc4c(N5CCOCC5)nc(-c5cnc(N)nc5)cn4c3C2)c1` [2-113]: the 50% inhibitory concentration (IC50) stood at 81 nM.

As to `CS(=O)(=O)c1ccccc1CN1CCc2nc3c(N4CCOCC4)nc(-c4cnc(N)nc4)cn3c2C1` [2-117], the IC50 is 37 nM.

Consider `CC1(C)Cc2nc3c(N4CCOCC4)nc(-c4cnc(N)nc4)cn3c2C(O)C1` (stereo not shown) [5-05], for which the IC50 was found to be 661 nM.

`O=C1CCc2nc3c(N4CCOCC4)nc(-c4cccc(O)c4)cn3c2N1` [5-10]: the IC50 turned out to be 409 nM.

Regarding `CN(C)CCN1CCc2c(nc3c(N4CCOCC4)nc(-c4cnc(N)nc4)cn23)C1` [6-04], the IC50 was determined as 178 nM.

For the molecule `Nc1ncc(-c2nc(N3CCOCC3)c3nc4c(n3c2Cl)CCN(Cc2ccc(F)cc2)C4)cn1` [6-12], the 50% inhibitory concentration (IC50) came to 290 nM.

For the molecule `Nc1ncc(-c2cn3c4c(nc3c(N3CCOCC3)n2)CN(C(=O)C(F)(F)F)CC4)cn1` [6-14], the IC50 was 23 nM.

Regarding `CCS(=O)(=O)N1CCc2c(nc3c(N4CCOCC4)nc(-c4cnc(N)nc4)cn23)C1` [6-20], the IC50 was found to be 22 nM.

For the molecule `CC(C)NC(=O)N1CCc2c(nc3c(N4CCOCC4)nc(-c4cnc(N)nc4)cn23)C1` [6-22], the IC50 was 100 nM.

For `Nc1ncc(-c2cn3c4c(nc3c(N3CCOCC3)n2)CN(S(=O)(=O)C2CCOCC2)CC4)cn1` [6-28], the IC50 stood at 18 nM.

Consider `N#CCCCS(=O)(=O)N1CCc2c(nc3c(N4CCOCC4)nc(-c4cnc(N)nc4)cn23)C1` [6-29], for which the IC50 was 31 nM.

Turning to `COCCC(=O)N1CCc2c(nc3c(N4CCOCC4)nc(-c4cnc(N)nc4)cn23)C1` [6-35], the IC50 stood at 79 nM.
